Results from patent US20140275143A1, “Compositions Comprising An Opioid And An Additional Active Pharmaceutical Ingredient For Rapid Onset And Extended Duration Of Analgesia That May Be Administered Without Regard To Food” (MALLINCKRODT LLC, priority 2013, published 2014).

Columns and labels:
[1] = Dose proportionality and linearity of oxycodone (Example 34); assay type: in vivo, human; settings: CR OC/APAP; for AUC0-inf vs dose, Slope / AUC0-inf vs dose, y-Intercept / Cmax vs dose, Slope / Cmax vs dose, y-Intercept: linearity; for Dose-normalized AUC0-inf vs dose, Slope / Dose-normalized AUC0-inf vs dose, y-Intercept / Dose-normalized Cmax vs dose, Slope / Dose-normalized Cmax vs dose, y-Intercept: proportionality
Method: Data were pooled from randomized, crossover, single- and multiple-dose studies conducted in healthy adults (aged 18-55 years) to evaluate the dose proportionality and dose linearity of the oxycodone component of CR OC/APAP when administered as 1, 2, or 4 tablets (7.5 mg, 15 mg, or 30 mg oxycodone, respectively). […] (See selected example from Chart No. 1)
The following treatments were administered under fasted conditions: • Single-dose studies: 1, 2, or 4 tablets of CR OC/APAP (7.5 mg, 15 mg, or 30 mg oxycodone, respectively) (see selected example from Chart No. 1) administered orally once • Multiple-dose studies: 1 or 2 tablets of CR OC/APAP (7.5 mg or 15 mg oxycodone, respectively) (see selected example from Chart No. 1) administered every 12 hours for 4.5 days (9 doses)
(§1) One single-dose study (highest dosage) enrolled healthy recreational drug users; all other studies enrolled healthy subjects with specific exclusions for drug use.
(§2) Area under the plasma oxycodone concentration-time curve from time 0 extrapolated to infinity (AUC0-inf) and maximum plasma concentration (Cmax)) were compared across dose levels of CR OC/APAP. […] For a linear PK system, the measures of exposure, such as maximal blood concentration (Cmax) or area under the curve from 0 to infinity (AUC) on the y-axis, are linearly (i.e., by a straight line) related to dose on the x-axis. Dose proportionality for CR OC/APAP was assessed; dose proportionality occurs when increases in the administered dose are accompanied by proportional increases in a measure of exposure, such as AUC or Cmax.
(§3) AUC0-inf and Cmax were divided by dose (dose-normalized) for dose proportionality analyses. Dose normalization (calculated as plasma concentration divided by dose) was utilized to compare concentration across different dosage strengths. Dose linearity and proportionality were determined using linear regression of non-transformed data, including 95% confidence intervals (CIs) and 95% prediction limits. Slope, y-intercept, and R^2 were calculated. The slope and the intercept together define the linear relationship between dose and AUC, or dose and Cmax. The coefficient of determination, R^2, represents the proportion of variability in a data set that is accounted for by a statistical model.

[2] = Dose proportionality and linearity of acetaminophen (Example 33); assay type: in vivo, human; settings: CR OC/APAP; for AUC0-inf vs dose, Slope / AUC0-inf vs dose, y-Intercept / Cmax vs dose, Slope / Cmax vs dose, y-Intercept: linearity; for Dose-normalized AUC0-inf vs dose, Slope / Dose-normalized AUC0-inf vs dose, y-Intercept / Dose-normalized Cmax vs dose, Slope / Dose-normalized Cmax vs dose, y-Intercept: proportionality
From the text: (See selected example from Chart No. 1)
as §1
as §2, with “APAP” for “oxycodone”
as §3

COc1ccc2c3c1O[C@H]1C(=O)CC[C@@]4(O)[C@@H](C2)N(C)CC[C@]314 [Oxycodone]
AUC0-inf vs dose, Slope ([1]; Multiple-Dose): 14.151
AUC0-inf vs dose, y-Intercept ([1]; Multiple-Dose): −3.774
Cmax vs dose, Slope ([1]; Multiple-Dose): 1.640
Cmax vs dose, y-Intercept ([1]; Multiple-Dose): 0.362
AUC0-inf vs dose, Slope ([1]; Single-Dose): 11.093
AUC0-inf vs dose, y-Intercept ([1]; Single-Dose): 7.202
Cmax vs dose, Slope ([1]; Single-Dose): 1.050
Cmax vs dose, y-Intercept ([1]; Single-Dose): −0.417
Dose-normalized AUC0-inf vs dose, Slope ([1]; Multiple-Dose): 0.033
Dose-normalized AUC0-inf vs dose, y-Intercept ([1]; Multiple-Dose): 13.397
Dose-normalized Cmax vs dose, Slope ([1]; Multiple-Dose): −0.003
Dose-normalized Cmax vs dose, y-Intercept ([1]; Multiple-Dose): 1.712
Dose-normalized AUC0-inf vs dose, Slope ([1]; Single-Dose): −0.024
Dose-normalized AUC0-inf vs dose, y-Intercept ([1]; Single-Dose): 12.015
Dose-normalized Cmax vs dose, Slope ([1]; Single-Dose): −0.001
Dose-normalized Cmax vs dose, y-Intercept ([1]; Single-Dose): 1.041

CC(=O)Nc1ccc(O)cc1 [acetaminophen]
AUC0-inf vs dose, Slope ([2]; Multiple-Dose): 40.177
AUC0-inf vs dose, y-Intercept ([2]; Multiple-Dose): 2249.134
Cmax vs dose, Slope ([2]; Multiple-Dose): 7.079
Cmax vs dose, y-Intercept ([2]; Multiple-Dose): 816.140
AUC0-inf vs dose, Slope ([2]; Single-Dose): 41.021
AUC0-inf vs dose, y-Intercept ([2]; Single-Dose): 4024.292
Cmax vs dose, Slope ([2]; Single-Dose): 6.336
Cmax vs dose, y-Intercept ([2]; Single-Dose): 467.019
Dose-normalized AUC0-inf vs dose, Slope ([2]; Multiple-Dose): −0.011
Dose-normalized AUC0-inf vs dose, y-Intercept ([2]; Multiple-Dose): 50.557
Dose-normalized Cmax vs dose, Slope ([2]; Multiple-Dose): −0.004
Dose-normalized Cmax vs dose, y-Intercept ([2]; Multiple-Dose): 10.845
Dose-normalized AUC0-inf vs dose, Slope ([2]; Single-Dose): −0.007
Dose-normalized AUC0-inf vs dose, y-Intercept ([2]; Single-Dose): 52.943
Dose-normalized Cmax vs dose, Slope ([2]; Single-Dose): −0.001
Dose-normalized Cmax vs dose, y-Intercept ([2]; Single-Dose): 7.877
